According to ChEMBL document CHEMBL1615344, “Cerep in vitro phospholipidosis assay data”:

How the values were obtained:
Phospholipidosis = assay: (§1) Cerep Phospholipidosis assay (HepG2 cells); format: ADME, cell-based; details: human, hepg2
[1] = as §1; format: ADME, cell-based; details: human, HepG2 cells; read-out: Maximum test concentration that did not exhibit cytotoxicity

Compound	Phospholipidosis as % of positive control (Phospholipidosis)	MNTC [1]
CC[C@H]1OC(=O)[C@H](C)[C@@H](O[C@H]2C[C@@](C)(OC)[C@@H](O)[C@H](C)O2)[C@H](C)[C@@H](O[C@@H]2O[C@H](C)C[C@H](N(C)C)[C@H]2O)[C@](C)(O)C[C@@H](C)C(=O)[C@H](C)[C@@H](O)[C@]1(C)O [ERYTHROMYCIN]	61.9%	50 µM
CC(CCc1ccccc1)NCC(O)c1ccc(O)c(C(N)=O)c1 (stereo not drawn) [LABETALOL]	5.3%	25 µM
CCN(CC)CCOc1ccc(C(O)(Cc2ccc(Cl)cc2)c2ccc(C)cc2)cc1 (stereo not drawn) [TRIPARANOL]	44.9%	3.13 µM
O=C(CCCN1CCC(O)(c2ccc(Cl)cc2)CC1)c1ccc(F)cc1 [HALOPERIDOL]	42.1%	12.5 µM
OCCOCCN1CCN(C(c2ccccc2)c2ccc(Cl)cc2)CC1 (stereo not drawn) [HYDROXYZINE]	35.8%	25 µM
CC1COc2c(N3CCN(C)CC3)c(F)cc3c(=O)c(C(=O)O)cn1c23 (stereo not drawn) [OFLOXACIN]	0.3%	50 µM
CC/C(=C(\c1ccccc1)c1ccc(OCCN(C)C)cc1)c1ccccc1 [TAMOXIFEN]	53%	6.25 µM
CC1=CC(=O)c2ccccc2C1=O [MENADIONE]	1%	3.13 µM
CC(=O)Nc1ccc(O)cc1 [ACETAMINOPHEN]	0.3%	100 µM
CCCC(CCC)C(=O)O [VALPROIC ACID]	0.2%	100 µM
CN(Cc1cc(Br)cc(Br)c1N)C1CCCCC1 [BROMHEXINE]	30.1%	50 µM
Cc1cccc(CN2CCN(C(c3ccccc3)c3ccc(Cl)cc3)CC2)c1 (stereo not drawn) [MECLIZINE]	10.5%	25 µM
CN(C)CCC=C1c2ccccc2CCc2ccccc21 [AMITRIPTYLINE]	49.8%	20 µM
CN(C)CCCC1(c2ccc(F)cc2)OCc2cc(C#N)ccc21 (stereo not drawn) [CITALOPRAM]	19.6%	100 µM
CN(C)CCC=C1c2ccccc2COc2ccccc21 [DOXEPIN]	36.4%	25 µM
Nc1c(Br)cc(Br)cc1CN[C@H]1CC[C@H](O)CC1 [AMBROXOL]	29.7%	50 µM

Compound	Phospholipidosis as % of positive control (Phospholipidosis)	MNTC [1]
C=C[C@H]1C[N@@]2CC[C@H]1C[C@@H]2[C@@H](O)c1ccnc2ccc(OC)cc12 [QUINIDINE]	3.2%	25 µM
CN[C@H]1CC[C@@H](c2ccc(Cl)c(Cl)c2)c2ccccc21 [SERTRALINE]	100%	3.13 µM
CC(=O)N1CCN(c2ccc(OCC3COC(Cn4ccnc4)(c4ccc(Cl)cc4Cl)O3)cc2)CC1 (stereo not drawn) [KETOCONAZOLE]	52%	12.5 µM
CC(C)NCC(O)c1ccc(NS(C)(=O)=O)cc1 (stereo not drawn) [SOTALOL]	0.3%	50 µM
CCCCc1oc2ccccc2c1C(=O)c1cc(I)c(OCCN(CC)CC)c(I)c1 [AMIODARONE]	38.4%	6.25 µM
CN(C)CCCN1c2ccccc2Sc2ccc(Cl)cc21 [CHLORPROMAZINE]	54.7%	5 µM
CC(C)NCC(O)COc1cccc2ccccc12 (stereo not drawn) [PROPRANOLOL]	36%	25 µM
CN1CCN(C2=Nc3cc(Cl)ccc3Nc3ccccc32)CC1 [CLOZAPINE]	18.9%	12.5 µM
CCN(CC)CCCC(C)Nc1ccnc2cc(Cl)ccc12 (stereo not drawn) [CHLOROQUINE]	22.8%	10 µM
CC[C@H]1OC(=O)[C@H](C)[C@@H](O[C@H]2C[C@@](C)(OC)[C@@H](O)[C@H](C)O2)[C@H](C)[C@@H](O[C@@H]2O[C@H](C)C[C@H](N(C)C)[C@H]2O)[C@](C)(O)C[C@@H](C)CN(C)[C@H](C)[C@@H](O)[C@]1(C)O [AZITHROMYCIN]	26.7%	25 µM
CNCCCC12CCC(c3ccccc31)c1ccccc12 [MAPROTILINE]	42.2%	6.25 µM
CNCCC(Oc1ccc(C(F)(F)F)cc1)c1ccccc1 (stereo not drawn) [FLUOXETINE]	–	5 µM
CN(C)CCCN1c2ccccc2CCc2ccccc21 [IMIPRAMINE]	2.1%	6.25 µM
NCC[C@H](O)C(=O)N[C@@H]1C[C@H](N)[C@@H](O[C@H]2O[C@H](CN)[C@@H](O)[C@H](O)[C@H]2O)[C@H](O)[C@H]1O[C@H]1O[C@H](CO)[C@@H](O)[C@H](N)[C@H]1O [AMIKACIN]	4.9%	25 µM
C1CCC(C(CC2CCCCN2)C2CCCCC2)CC1 (stereo not drawn) [PERHEXILINE]	36%	3.13 µM
CCN(CC)CCOc1ccc2c(c1)C(=O)c1cc(OCCN(CC)CC)ccc1-2 [TILORONE]	20.2%	3.13 µM
